Values joined by “and” are separate entries in the source; they are usually repeats but may differ in a detail not shown here. Equal values may be shown once. Toxic doses and inconclusive results are not listed. How the source made its calls: active means survival T/C of 150% or more; inactive means T/C below 125% in these data.
System: P388 leukemia ip, CD2F1 mice, survival T/C
Test: NCI In Vivo Anticancer Drug Screen. Data for tumor model P388 Leukemia (intraperitoneal) in CD2F1 (CDF1) mice
Settings: endpoint: median survival time, higher = longer survival
In short: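 Mice carrying the transplanted tumor received test compound or vehicle. Survival was recorded in each group, and the value is the treated-group measurement divided by that of the vehicle-treated control group.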

[1] = dose: 60.0 mg/kg/injection, schedule: Q01DX005 (ip), vehicle: Klucel (hydroxypropylcellulose) (HPC)
[2] = dose: 50.0 mg/kg/injection, schedule: Q01DX005 (ip), vehicle: saline with Tween-80
[3] = dose: 100.0 mg/kg/injection, schedule: Q01DX005 (ip), vehicle: saline with Tween-80
[4] = dose: 200.0 mg/kg/injection, schedule: Q01DX005 (ip), vehicle: saline with Tween-80
[5] = dose: 120.0 mg/kg/injection, schedule: Q01DX005 (ip), vehicle: Klucel (hydroxypropylcellulose) (HPC)
[6] = dose: 240.0 mg/kg/injection, schedule: Q01DX005 (ip), vehicle: Klucel (hydroxypropylcellulose) (HPC)
[7] = dose: 60.0 mg/kg/injection, schedule: Q01DX005 (ip), vehicle: saline with Tween-80
[8] = dose: 120.0 mg/kg/injection, schedule: Q01DX005 (ip), vehicle: saline with Tween-80
[9] = dose: 240.0 mg/kg/injection, schedule: Q01DX005 (ip), vehicle: saline with Tween-80
[10] = dose: 100.0 mg/kg/injection, schedule: Q01DX001 (ip), vehicle: Klucel (hydroxypropylcellulose) (HPC)
[11] = dose: 200.0 mg/kg/injection, schedule: Q01DX001 (ip), vehicle: Klucel (hydroxypropylcellulose) (HPC)
[12] = dose: 50.0 mg/kg/injection, schedule: Q01DX005 (ip), vehicle: Klucel (hydroxypropylcellulose) (HPC)
[13] = dose: 100.0 mg/kg/injection, schedule: Q01DX005 (ip), vehicle: Klucel (hydroxypropylcellulose) (HPC)
[14] = dose: 200.0 mg/kg/injection, schedule: Q01DX005 (ip), vehicle: Klucel (hydroxypropylcellulose) (HPC)
[15] = dose: 50.0 mg/kg/injection, schedule: Q01DX009 (ip), vehicle: Klucel (hydroxypropylcellulose) (HPC)
[16] = dose: 100.0 mg/kg/injection, schedule: Q01DX009 (ip), vehicle: Klucel (hydroxypropylcellulose) (HPC)
[17] = dose: 200.0 mg/kg/injection, schedule: Q01DX009 (ip), vehicle: Klucel (hydroxypropylcellulose) (HPC)
[18] = dose: 100.0 mg/kg/injection, schedule: Q01DX009 (ip), vehicle: saline with Tween-80
[19] = dose: 400.0 mg/kg/injection, schedule: Q01DX001 (ip), vehicle: Klucel (hydroxypropylcellulose) (HPC)
[20] = dose: 25.0 mg/kg/injection, schedule: Q01DX005 (ip), vehicle: Klucel (hydroxypropylcellulose) (HPC)

Measured: T/C

COc1ccc(C(=O)NC[n+]2ccccc2)cc1
inactive: dose: 25.0 mg/kg/injection, schedule: Q04DX003 (ip), vehicle: saline 100 % of control | dose: 50.0 mg/kg/injection, schedule: Q04DX003 (ip), vehicle: saline 100 % of control | dose: 100.0 mg/kg/injection, schedule: Q04DX003 (ip), vehicle: saline 104 % of control

Cc1ccnc2cc(N(C)C)ccc12
inactive: dose: 7.5 mg/kg/injection, schedule: Q01DX005 (ip), vehicle: Klucel (hydroxypropylcellulose) (HPC) 101 % of control | dose: 15.0 mg/kg/injection, schedule: Q01DX005 (ip), vehicle: Klucel (hydroxypropylcellulose) (HPC) 98 % of control | dose: 30.0 mg/kg/injection, schedule: Q01DX005 (ip), vehicle: Klucel (hydroxypropylcellulose) (HPC) 99 % of control | [1] 92 % of control

Oc1ccc(/C=N/NC(=S)NN2CCOCC2)nc1
inactive: dose: 3.12 mg/kg/injection, schedule: Q01DX009 (ip), vehicle: Klucel (hydroxypropylcellulose) (HPC) 110 % of control | dose: 6.25 mg/kg/injection, schedule: Q01DX009 (ip), vehicle: Klucel (hydroxypropylcellulose) (HPC) 109 % of control | dose: 12.5 mg/kg/injection, schedule: Q01DX009 (ip), vehicle: Klucel (hydroxypropylcellulose) (HPC) 104 % of control | dose: 25.0 mg/kg/injection, schedule: Q01DX009 (ip), vehicle: Klucel (hydroxypropylcellulose) (HPC) 111 % of control

CCC(Oc1c2ccoc2c(OC)c2oc(=O)cc(O)c12)C(=O)O (configuration not stated)
inactive: [2] 108 % of control | [3] 95 % of control | [4] 100 % of control

CCn1c(=NC(=O)c2ccccc2O)ccn1C
inactive: [1] 95 % of control | [5] 90 % of control | [6] 88 % of control

Cc1ccc(-c2c([N+](=O)[O-])c3ccccn3c2[N+](=O)[O-])cc1
inactive: [7] 92 % of control | [8] 90 % of control | [9] 99 % of control

O=c1[nH]c(=O)c2c(Br)[nH]nc2[nH]1
inactive: [10] 110 % of control | [11] 103 % of control

Cc1ccc(Br)cc1CCO
inactive: [12] 98 % of control and 97 % of control | [13] 99 % of control and 100 % of control | [14] 100 % of control and 120 % of control

CCCCCCCCN(CCCCCCCC)/N=C/c1c2c(O)c3c(O)c(C)c4c(c3c1O)C(=O)C(C)(O/C=C/C(OC)C(C)C(OC(C)=O)C(C)C(O)C(C)C(O)C(C)/C=C/C=C(C)C(=O)N2)O4 (configuration not stated)
inactive: [1] 95 % of control | [5] 89 % of control | [6] 92 % of control

CC(=O)NCCSc1nc(-c2ccccc2)c(-c2ccccc2)o1
inactive: [15] 95 % of control | [16] 104 % of control | [17] 101 % of control

C=C(C)CC1CN2CCc3cc(OC)c(OC)cc3C2CC1=O (configuration not stated)
inactive: [15] 106 % of control | dose: 50.0 mg/kg/injection, schedule: Q01DX009 (ip), vehicle: saline with Tween-80 102 % of control | [16] 104 % of control | [18] 116 % of control

COc1onc(C)c1CC(=O)O
inactive: dose: 18.75 mg/kg/injection, schedule: Q01DX005 (ip), vehicle: saline with Tween-80 97 % of control | dose: 37.5 mg/kg/injection, schedule: Q01DX005 (ip), vehicle: saline with Tween-80 101 % of control | dose: 75.0 mg/kg/injection, schedule: Q01DX005 (ip), vehicle: saline with Tween-80 95 % of control | dose: 150.0 mg/kg/injection, schedule: Q01DX005 (ip), vehicle: saline with Tween-80 99 % of control

CNC(=S)N/N=C(\C=N\NC(=S)NC)c1ccc(C)cc1
inactive: [15] 98 % of control | [16] 98 % of control | [17] 90 % of control | dose: 400.0 mg/kg/injection, schedule: Q01DX009 (ip), vehicle: Klucel (hydroxypropylcellulose) (HPC) 90 % of control

CCCCCCCCCCCCCCCCc1c(C)nc(N(C)C)oc1=O
inactive: [7] 103 % of control | [8] 97 % of control | [9] 98 % of control and 100 % of control

CCOC(=O)C(Cc1ccc(O)c(C#N)c1)NC(C)=O (configuration not stated)
inactive: [2] 97 % of control | [3] 97 % of control | [4] 95 % of control

CC(=O)c1cc2c(cc1I)OCO2
inactive: [10] 101 % of control | [11] 99 % of control | [19] 101 % of control

CC1(C)SSCC1=O
inactive: dose: 50.0 mg/kg/injection, schedule: Q01DX005 (ip), vehicle: saline 104 % of control | dose: 100.0 mg/kg/injection, schedule: Q01DX005 (ip), vehicle: saline 109 % of control | dose: 200.0 mg/kg/injection, schedule: Q01DX005 (ip), vehicle: saline 108 % of control

CC(=Nc1c[nH]c(=O)[nH]c1=O)c1cc(C)ccc1O
inactive: dose: 100.0 mg/kg/injection, schedule: Q04DX002 (ip), vehicle: suspension in saline 105 % of control | dose: 200.0 mg/kg/injection, schedule: Q04DX002 (ip), vehicle: suspension in saline 101 % of control | dose: 400.0 mg/kg/injection, schedule: Q04DX002 (ip), vehicle: suspension in saline 104 % of control

Clc1ccc2c(c1)CN1Cc3cc(Cl)ccc3C2C1
inactive: dose: 100.0 mg/kg/injection, schedule: Q01DX001 (ip), vehicle: saline with Tween-80 92 % of control | dose: 400.0 mg/kg/injection, schedule: Q01DX001 (ip), vehicle: saline with Tween-80 90 % of control

CN1CCN(CC2C(=O)C3CCC2C3)CC1 (configuration not stated)
inactive: [2] 93 % of control | [3] 101 % of control

COC(=O)C1=C(C(=O)OC)C2CCCOC2=C(C)C1 (configuration not stated)
inactive: [2] 96 % of control | [3] 95 % of control | [4] 93 % of control

Cn1nnc(-c2cccc(F)c2)n1
inactive: [20] 105 % of control | [12] 91 % of control and 96 % of control | [13] 93 % of control | [14] 91 % of control

Cc1cc(C)cc(OC(=O)/C=C/C(=O)Oc2cc(C)cc(C)c2)c1
inactive: [18] 90 % of control | dose: 200.0 mg/kg/injection, schedule: Q01DX009 (ip), vehicle: saline with Tween-80 90 % of control | dose: 400.0 mg/kg/injection, schedule: Q01DX009 (ip), vehicle: saline with Tween-80 90 % of control

NC(CCCCNC(=S)S)C(=O)O.[Na+].[Zn+2] (configuration not stated)
inactive: dose: 12.5 mg/kg/injection, schedule: Q01DX005 (ip), vehicle: Klucel (hydroxypropylcellulose) (HPC) 102 % of control | [20] 102 % of control | [12] 102 % of control and 107 % of control and 114 % of control | [13] 109 % of control and 120 % of control (2×)

Cc1cc(=O)n2c(nc3ccccc32)s1
inactive: [15] 109 % of control | [16] 96 % of control | [17] 109 % of control

CC1OC2=C(CC1O)C(=O)c1ccccc1C2=O (configuration not stated)
inactive: [10] 102 % of control | [11] 102 % of control | [19] 100 % of control

O[C@H]1CCC[C@H]1NCc1ccnc2cc(Cl)ccc12
inactive: [2] 100 % of control | [3] 89 % of control | [4] 91 % of control

COC(=O)c1nc(=S)[nH]c(C(=O)OC)c1C(=O)c1ccc(OC)cc1
inactive: dose: 60.0 mg/kg/injection, schedule: Q01DX005 (ip), vehicle: saline 100 % of control | dose: 120.0 mg/kg/injection, schedule: Q01DX005 (ip), vehicle: saline 96 % of control | dose: 240.0 mg/kg/injection, schedule: Q01DX005 (ip), vehicle: saline 103 % of control

CN(C)c1nc(=O)c2c(ccc3ccccc32)o1
inactive: [7] 97 % of control | [8] 104 % of control | [9] 101 % of control

Cc1ccc(N)c(C(=O)Nc2ccc(Cl)cc2)c1
inactive: [2] 104 % of control | [3] 91 % of control | [4] 92 % of control

CC(C)(Br)C(=O)/C=C/c1ccc(Cl)cc1
inactive: [7] 108 % of control | [8] 104 % of control | [9] 114 % of control
